Experimental data as given in article PMC7292393 (PLoS ONE, 2020).
“And” between values parts separate entries of the source, which are not always exact repeats. Equal values may be shown once.

Tests used:
human SUMO1 [1] = target: T1, human SUMO1 (Homo sapiens, UniProt P63165); test: SPR secondary screen / dose-dependent binding; parameters: key to SPR Screens 2°: ✓: dose-dependent saturation kinetics; ×: no indication of saturation kinetics; details: for saturation binding in SPR secondary screen: Fig 2A-H; for SPR Screens 2°: five concentrations 31.25-500 μM; for Kd: one-site hyperbola fit, 31.25-500 μM flavonoid, Fig 2A-C, read-out: Kd (SPR secondary screen)
T1 construct: encoding amino acids 1–97 of mature human SUMO1; host or cells: E. coli BL21 Rosetta (DE3)
T1 sequence (P63165 1-97): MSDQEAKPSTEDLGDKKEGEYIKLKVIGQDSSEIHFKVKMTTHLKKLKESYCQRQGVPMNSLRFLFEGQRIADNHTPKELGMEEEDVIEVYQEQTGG

human SUMO1 [2] = target: T1, human SUMO1; test: Surface plasmon resonance (SPR) primary screen; assay type: binding; details: for SPR Screens 1° / %RUmax: 500 μM flavonoid in DMSO; for SPR Screens 1°: cut-off of %RUmax of ~15; for interaction in SPR primary screen: 500 μM, %RUmax above threshold of ~15%; for %RUmax: SPR primary screen, (Mean RU/RUmax)*100;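 on all read-outs here: recombinant human SUMO1 amine-coupled to a sensor chip, blank activated and quenched reference flow cell, flavonoids injected 2 min then 1 min dissociation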
human SUMO1 [3] = target: T1, human SUMO1; test: Differential scanning fluorimetry (DSF) thermal shift; assay type: binding; parameters: key to DSF Tm SUMO1 + Flavonoid (class): UF: unfolded protein; ND: melting curve could not be determined; details: 2 μM SUMO1, 300 μM flavonoid; for DSF Tm SUMO1 + Flavonoid: mean and SEM, n = 5, SUMO1 + DMSO 59.63 ± 0.03
[4] = Precipitation in NMR samples; assay type: physicochemical; details: at 400 μM, dissolved in DMSO-d6, NMR sample
Protocol: All NMR experiments for 2D ^1H-^15N HSQC spectra were performed at 17°C on a Varian VNMR 500 MHz spectrometer equipped with a 5mm cryogenic triple resonance probe. Complex points 1024 × 128 and spectral widths of 14 × 38 ppm were used to record all the spectra. […] DMSO-d6 used as a cosolvent caused a slight shift (< ~0.8ppm) of resonance peaks. Therefore resonance assignments for ^15N-labeled SUMO1 residues were compared to the DMSO control treatment and normalized by a common factor. […] The resonance peak assignments were performed using data deposited in the Biological Resonance Data Bank (BMRB) under 25576 as reference. Chemical shift changes were characterized by calculating a weighted chemical shift difference as previously described. […] The chemical shift perturbation data from this work are deposited under BMRB ID 50128.

human SUMO1 [5] = target: T1, human SUMO1; test: Native-PAGE mobility shift; assay type: binding; details: SUMO1 ~40 μM, 300 μM flavonoid
Protocol: Recombinantly purified proteins (Saccharomyces cerevisiae SMT3, Saccharomyces cerevisiae Ulp1, and human SUMO1) were incubated with flavonoids (or DMSO vehicle control) for 30 min to 1 hr at 4°C. Samples were loaded onto 4–20% or 7.5% Mini-PROTEAN TGX Precast Protein Gels (Bio-Rad, Hercules, CA) and were run […] at 95 V for 4 hr 30 min at 4°C using a standard SDS-free loading buffer (pH 8.0) and Tris-glycine running buffer (pH 8.3). Immediately after electrophoresis, the gel was imaged to track migration of bright yellow flavonoid. Following this step, the gel was stained with Bio-Safe Coomassie (Bio-Rad, Hercules, CA) to detect the proteins.

SMILES | saturation binding in SPR secondary screen (human SUMO1 [1]) | SPR Screens 2° (human SUMO1 [1]) | SPR Screens 1° (human SUMO1 [2]) | interaction in SPR primary screen (human SUMO1 [2]) | %RUmax (human SUMO1 [2]) [%] | effect on DSF thermogram / thermal stability of SUMO1 (human SUMO1 [3]) | DSF Tm SUMO1 + Flavonoid (human SUMO1 [3]) [°C] | Kd (human SUMO1 [1]) | precipitation in NMR sample [4] | electrophoretic mobility shift of human SUMO1 (human SUMO1 [5]) | DSF Tm SUMO1 + Flavonoid (class) (human SUMO1 [3])
O=c1c(-c2ccc(O)c(O)c2)coc2cc(O)ccc12 [3’,4’,7-Trihydroxy-isoflavone, 3’,4’,7-Trihydroxyisoflavone] | failed to exhibit saturation binding | × | ✓ (%RUmax with binding activity above cut-off) | interacted with SUMO1 in the primary screen | 48.0 | significant thermal destabilization or unfolding | 33.28 ± 0.15 |  |  |  | 
O=C(/C=C/c1ccc(O)c(O)c1)c1ccc(O)cc1O [Butein] | failed to exhibit saturation binding | × | ✓ (%RUmax with binding activity above cut-off) | interacted with SUMO1 in the primary screen | 74.2 |  |  |  |  |  | 
COc1cc(O)c(Cc2ccccc2O)c(O)c1C(=O)/C=C/c1ccccc1 [C-benzylated chalcone] |  |  | × (low or no binding activity) |  | -5.3 |  |  |  |  |  | 
O=C(/C=C/c1ccc(O)cc1)c1ccc(O)cc1O [Isoliquiritigenin] |  | ✓ |  | interacted with SUMO1 in the primary screen |  |  |  | ~196 µM |  |  | 
O=c1c(O)c(-c2ccc(O)cc2)oc2cc(O)cc(O)c12 [Kaempferol, 3,4′,5,7-tetrahydroxyflavone] |  |  | × (low or no binding activity) |  | 12.6 | little or no effect | 60.28 ± 0.09 |  | Precipitation |  | 
O=c1cc(-c2ccc(O)c(O)c2)oc2cc(O)cc(O)c12 [Luteolin] |  |  | × (low or no binding activity) |  | -47.8 | significant thermal destabilization or unfolding | 51.89 ± 0.68 |  |  | unable to detect a similar gel shift | 
O=C1C[C@@H](c2ccc(O)cc2)Oc2cc(O)cc(O)c21 [Naringenin] | failed to exhibit saturation binding | × | ✓ (%RUmax with binding activity above cut-off) | interacted with SUMO1 in the primary screen | 27.5 |  | 59.24 ± 0.13 |  |  |  | 
C[C@@H]1O[C@@H](O[C@H]2[C@H](Oc3cc(O)c(C(=O)CCc4ccc(O)cc4)c(O)c3)O[C@H](CO)[C@@H](O)[C@@H]2O)[C@H](O)[C@H](O)[C@H]1O [Naringin dihydrochalcone] |  |  | × (low or no binding activity) |  | 8.5 |  | 59.94 ± 0.07 |  |  |  | 
C[C@@H]1O[C@@H](O[C@H]2[C@H](Oc3cc(O)c4c(c3)O[C@H](c3ccc(O)cc3)CC4=O)O[C@H](CO)[C@@H](O)[C@@H]2O)[C@H](O)[C@H](O)[C@H]1O [Naringin] |  |  | × (low or no binding activity) |  | 5.4 |  | 58.93 ± 0.02 |  |  |  | 
Cc1c(O)cc2oc(-c3ccc(O)c(O)c3)c(O)c(=O)c2c1O [Pinoquercetin] | failed to exhibit saturation binding | × | ✓ (%RUmax with binding activity above cut-off) | interacted with SUMO1 in the primary screen | 143.4 |  |  |  |  |  | 
O=c1c(O[C@@H]2O[C@H](CO)[C@@H](O)[C@H](O)[C@H]2O)c(-c2ccc(O)c(O)c2)oc2cc(O)cc(O)c12 [Quercetin 3-β-D-glucoside] | failed to exhibit saturation binding | × | ✓ (%RUmax with binding activity above cut-off) | interacted with SUMO1 in the primary screen | 21.3 |  | 56.95 ± 0.28 |  |  |  | 
O=c1c(O)c(-c2ccc(O)c(O)c2)oc2cc(O)cc(O)c12 [Quercetin, 3,3',4',5,7-pentahydroxyflavone] | exhibited binding that approached saturation | ✓ | ✓ (%RUmax with binding activity above cut-off) | interacted with SUMO1 in the primary screen | 14.5 | cause unfolding of human SUMO1 |  | 41.7 µM and ~42 µM | Precipitation |  | UF
C[C@@H]1O[C@@H](Oc2c(-c3ccc(O)c(O)c3)oc3cc(O)cc(O)c3c2=O)[C@H](O)[C@H](O)[C@H]1O [Quercitrin] |  |  | × (low or no binding activity) |  | 14.2 | significant thermal destabilization or unfolding | 54.28 ± 0.19 |  |  |  | 
